Laboratory results as given in patent US20240174727A1, “LONG-ACTING NATRIURETIC PEPTIDES AND USES THEREOF” (Eli Lilly and Company, priority 2022, published 2024).
Where two headings read alike, the source gives them in different places. Numbered stars: 1 amine (or outer) side, 2 acyl side, 3 side chain; on linkers, the order of the positions; unused ones are H or OH. Bridge positions count the residues as written; N and C are the ends. Square brackets hold non-standard residues; d marks the D form. Peptide text beside a SMILES is read from it. * marks the point of attachment. C20 diacid = O=C(O)CCCCCCCCCCCCCCCCCCC(=O)*; γGlu = O=C(O)[C@H](CCC(=O)[*:2])N[*:1]; 4Pal = N[C@@H](Cc1ccncc1)C(=O)O; Aib = CC(C)(N)C(=O)O; CH2 = C([*:1])[*:2]; βAla = NCCC(=O)O

Target: T1, human NPRA (Homo sapiens, UniProt P16066)
T1 construct: Full-Length cDNA Cloning and Generation of Cell Lines Overexpressing Natriuretic Peptide Receptors (NPRs); expressed in transfected cells; host or cells: Jump-in T-Rex HEK293 cells, pJTI R4 CMV-TO MCS pA vector, tetracycline induction
T1 sequence (P16066 33-1061): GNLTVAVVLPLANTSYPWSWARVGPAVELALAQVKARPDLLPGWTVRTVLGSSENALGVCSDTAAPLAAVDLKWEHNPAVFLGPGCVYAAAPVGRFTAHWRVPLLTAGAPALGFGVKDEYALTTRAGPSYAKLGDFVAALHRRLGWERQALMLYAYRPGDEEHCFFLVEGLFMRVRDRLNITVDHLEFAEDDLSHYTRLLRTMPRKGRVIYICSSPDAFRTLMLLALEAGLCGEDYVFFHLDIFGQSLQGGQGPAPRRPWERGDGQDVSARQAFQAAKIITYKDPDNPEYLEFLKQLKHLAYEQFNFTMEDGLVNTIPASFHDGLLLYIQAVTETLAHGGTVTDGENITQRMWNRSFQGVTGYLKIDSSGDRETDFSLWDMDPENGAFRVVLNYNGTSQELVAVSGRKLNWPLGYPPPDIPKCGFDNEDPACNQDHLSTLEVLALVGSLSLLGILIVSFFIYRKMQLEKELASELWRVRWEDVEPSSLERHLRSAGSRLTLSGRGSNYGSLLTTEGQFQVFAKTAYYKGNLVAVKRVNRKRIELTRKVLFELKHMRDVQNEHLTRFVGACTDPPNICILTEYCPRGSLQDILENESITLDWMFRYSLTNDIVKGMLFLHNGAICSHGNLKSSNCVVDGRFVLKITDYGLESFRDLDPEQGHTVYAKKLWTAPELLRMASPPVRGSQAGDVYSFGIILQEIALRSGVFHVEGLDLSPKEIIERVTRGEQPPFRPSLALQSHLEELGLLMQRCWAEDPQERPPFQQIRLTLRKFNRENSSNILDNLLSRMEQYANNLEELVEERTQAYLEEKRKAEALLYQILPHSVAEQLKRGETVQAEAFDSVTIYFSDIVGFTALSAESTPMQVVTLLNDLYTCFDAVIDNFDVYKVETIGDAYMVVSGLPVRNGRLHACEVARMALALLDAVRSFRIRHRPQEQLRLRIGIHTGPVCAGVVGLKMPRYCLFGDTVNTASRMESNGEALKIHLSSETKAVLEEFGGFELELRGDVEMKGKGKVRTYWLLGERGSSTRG
Test: Human NPRA cGMP activity assay (HTRF) in HEK293 cells overexpressing NPRA
Format: cell-based
Protocol: All sequences were verified by full-length sequencing performed by ACGT DNA Sequencing Services (Wheeling, IL). The target cDNA was cloned into pJTI R4 CMV-TO MCS pA vector and then co-transfected with pJT1R4 Int vector into Jump-in™ T-Rex™ HEK293 cells for mammalian inducible expression using Jump-in™ T-Rex™ HEK293 kit and Lipofectamine LTX and Plus Reagent following manufacturer's protocols, as briefly described below.
Jump-in™ T-Rex™ HEK293 cells were plated in a BioCOAT® poly-D-lysine coated 6-well plate (Becton Dickinson, cat no. 354413) at 1 million cells/well in 2 mL culture medium and incubated for 18 h at 37° C. and 5% CO2 to 50-70% confluence. A cDNA mix was made in a 50 mL tube by adding 1.5 μg target cDNA, 1.5 μg pJT1R4 Int vector, 3 μL Plus Reagent, and 300 μL Opti-MEM I sequentially into the tube. A reagent mix was made in a separate 50 mL tube by adding 7.5 μL Lipofectamine LTX into 300 μL Opti-MEM I. The mixtures were incubated for 5 min at room temperature. The cDNA mix was then transferred into the reagent mix, mixed well, and incubated for additional 30 min at room temperature. A 500 μL of cDNA/Lipofectamine complex was then transferred to the wells of the cell plate in which the culture medium was changed to 2 mL of transfection medium containing DMEM with 4.5 g/L D-glucose supplemented with 10% FBS-HI and 20 mM HEPES. Transfected cells were cultured for 48 h in an incubator at 37° C. and 5% CO2. A subclone or pool from each overexpressing cell line was maintained in culture medium with the addition of 2 mg/mL G418 sulfate for the clone selection based on its built-in resistance to G418 sulfate for at least 3 weeks with medium changed every 2-3 days.
NPRs were overexpressed in T-Rex™ HEK293 cells following the induction with 300 ng/mL tetracycline in culture medium for 48 h. Induced cell lines in an exponential growth phase were treated with 0.05% trypsin-EDTA for a few seconds at room temperature, harvested in cell medium containing FBS to neutralize the trypsin, counted, and cryopreserved at the density of 2 million cells/mL in cell preservation solution containing FBS-HI with 5% DMSO. Cryopreserved cells were stored at −80° C. for a few days prior to transferring to a liquid nitrogen tank. Induced cell lines were then used for suspension assays to measure the activity of polypeptides to stimulate cGMP production in cGMP assays or for the preparation of cell membranes to measure the binding activity of polypeptides in competitive radioligand binding assays, as described below.
Test polypeptides were added starting at 10 μM concentration and at 10-fold decreasing concentrations to obtain 8-point concentration-response curves (i.e., 10 μM to 1 pM). The quantity of cGMP generated was detected using HTRF® technology and normalized to maximum amount produced by 100 nM amidated rat ANP and the minimum amount produced by assay buffer. Detailed steps are outlined below.
Stock solutions of test polypeptides (2 mM) dissolved in DMSO were first diluted 100-fold in assay buffer containing HBSS with Ca^2+ and Mg^2+, 5 mM HEPES, 0.5 mM IBMX, and 0.1% BSA or 0.1% casein (pH 7.4). The polypeptides were further serially diluted in 1:10 dilution steps in assay buffer containing 0.1% BSA or 0.1% casein to generate 8-point 2× working stock solutions ranging from 20 μM to […].
A 10 μL cell suspension containing 4000 cells was plated in Costar® half-area white opaque 96-well plates (Corning, cat no. 3693). Then 10 μL of assay buffer (basal activity), 200 nM of amidated rat ANP (maximum activity) or 2× working stock solutions of test polypeptides were transferred into the plate. Final concentration of DMSO in each well was 0.5%. The plate was shaken for 15 sec and then incubated for 40 min at room temperature.
The cGMP generated was measured using cGMP kit following the manufacturer's directions, as described below.

[1] = assay buffer with 0.1% casein, read-out: cGMP Assay (EC50, pM) w/Casein hNPRA
[2] = cGMP Assay (EC50, pM) w/Casein hNPRA, assay buffer with 0.1% casein

Compound	EC50 [1]	EC50 [2]	further results
CC[C@H](C)[C@@H]1NC(=O)[C@H](CCCNC(=N)N)NC(=O)[C@H](CC(=O)O)NC(=O)[C@H]([C@@H](C)CC)NC(=O)[C@H](CCCNC(=N)N)NC(=O)CNC(=O)CNC(=O)[C@H](Cc2ccccc2)NC(=O)[C@@H](NC(=O)[C@H](CO)NC(=O)[C@H](CO)NC(=O)[C@H](CCCNC(=N)N)NC(=O)[C@H](CCCNC(=N)N)NC(=O)[C@H](Cc2c[nH]cn2)NC(=O)[C@H](CO)NC(=O)CNC(=O)[C@H](CCCCN)NC(=O)[C@H](CCC(=O)O)NC(=O)[C@H](CCCCN)NC(=O)[C@H](CCC(=O)O)NC(=O)[C@H](CCCCN)NC(=O)[C@H](CCC(=O)O)NC(=O)CC[C@H](NC(=O)CCCCCCCCCCCCCCCCCCC(=O)O)C(=O)O)CSSC[C@@H](C(=O)N2CCC[C@H]2C(=O)N[C@@H](CO)C(=O)N[C@@H](Cc2ccccc2)C(=O)N[C@@H](CCCNC(=N)N)C(=O)N[C@@H](Cc2c[nH]cn2)C(N)=O)NC(=O)CNC(=O)[C@H](CC(C)C)NC(=O)CNC(=O)[C@H](CO)NC(=O)[C@H](CCC(N)=O)NC(=O)[C@H](C)NC(=O)CNC1=O [Example 18] ({C20 diacid-γGlu}-EKEKEKGSHRRSSCFGGRIDRIGAQSGLGCPSFRH-NH2; disulfide 14-30)	460 pM		
CC[C@H](C)[C@@H]1NC(=O)[C@H](CCCNC(=N)N)NC(=O)[C@H](CC(=O)O)NC(=O)[C@H]([C@@H](C)CC)NC(=O)[C@H](CCCNC(=N)N)NC(=O)CNC(=O)CNC(=O)[C@H](Cc2ccccc2)NC(=O)[C@@H](NC(=O)[C@H](CO)NC(=O)[C@H](CO)NC(=O)[C@H](CCCNC(=N)N)NC(=O)[C@H](CCCNC(=N)N)NC(=O)[C@H](Cc2ccncc2)NC(=O)[C@H](CO)NC(=O)CNC(=O)[C@H](CCCCN)NC(=O)[C@H](CCC(=O)O)NC(=O)[C@H](CCCCN)NC(=O)[C@H](CCC(=O)O)NC(=O)[C@H](CCCCN)NC(=O)[C@H](CCC(=O)O)NC(=O)CC[C@H](NC(=O)CCCCCCCCCCCCCCCCCCC(=O)O)C(=O)O)CSSC[C@@H](C(=O)N[C@@H](CC(N)=O)C(=O)N[C@@H](CO)C(=O)N[C@@H](Cc2ccccc2)C(=O)N[C@@H](CCCNC(=N)N)C(=O)N[C@@H](Cc2ccncc2)C(N)=O)NC(=O)CNC(=O)[C@H](CC(C)C)NC(=O)CNC(=O)[C@H](CO)NC(=O)[C@H](CCC(N)=O)NC(=O)[C@H](C)NC(=O)CNC1=O [Example 15] ({C20 diacid-γGlu}-EKEKEKGS[4Pal]RRSSCFGGRIDRIGAQSGLGCNSFR[4Pal]-NH2; disulfide 14-30)	912 pM		
CC[C@H](C)[C@@H]1NC(=O)[C@H](CCCNC(=N)N)NC(=O)[C@H](CC(=O)O)NC(=O)[C@H]([C@@H](C)CC)NC(=O)[C@H](CCCNC(=N)N)NC(=O)CNC(=O)CNC(=O)[C@H](Cc2ccccc2)NC(=O)[C@@H](NC(=O)[C@H](CO)NC(=O)[C@H](CO)NC(=O)[C@H](CCCNC(=N)N)NC(=O)[C@H](CCCNC(=N)N)NC(=O)[C@H](Cc2ccncc2)NC(=O)[C@H](CO)NC(=O)CNC(=O)[C@H](CCCCN)NC(=O)[C@H](CCC(=O)O)NC(=O)[C@H](CCCCN)NC(=O)[C@H](CCC(=O)O)NC(=O)[C@H](CCCCN)NC(=O)[C@H](CCC(=O)O)NC(=O)CC[C@H](NC(=O)CCCCCCCCCCCCCCCCCCC(=O)O)C(=O)O)CSCSC[C@@H](C(=O)N2CCC[C@H]2C(=O)N[C@@H](CO)C(=O)N[C@@H](Cc2ccccc2)C(=O)N[C@@H](CCCNC(=N)N)C(=O)N[C@@H](Cc2c[nH]cn2)C(=O)NCC(=O)NCC(=O)N2CCC[C@H]2C(=O)N[C@@H](CO)C(=O)N[C@@H](CO)C(=O)NCC(=O)N[C@@H](C)C(=O)N2CCC[C@H]2C(=O)N2CCC[C@H]2C(=O)N2CCC[C@H]2C(=O)N[C@@H](CO)C(N)=O)NC(=O)CNC(=O)[C@H](CC(C)C)NC(=O)CNC(=O)[C@H](CO)NC(=O)[C@H](CCC(N)=O)NC(=O)[C@H](Cc2c[nH]cn2)NC(=O)CNC1=O [Example 2]		1020 pM	
{C20 diacid-γGlu}-EKEKEKGEKGRSSCFGGRIDRIGHYSGLGCPSLRHGGPSSGAPPPS-NH2 (disulfide 14-30) [Example 51]		361 pM	
{C20 diacid-γGlu}-EKEKEKGEK[βAla]RSSCFGGRIDRIGHYSGLGCPSLRHGGPSSGAPPPS-NH2 (linker 14-30 via CH2) [Example 63]		1090 pM	
{C20 diacid-γGlu}-EKEKEKGS[4Pal]RRSSCFGGRIDRIGHQSGLGCPSFRHGGPPS[Aib]KPPPK-NH2 (linker 14-30 via CH2) [Example 68]			EC50 (assay buffer with 0.1% BSA, read-out: cGMP Assay (EC50, pM) w/BSA hNPRA): 96800 pM
CC[C@H](C)[C@@H]1NC(=O)[C@H](CCCNC(=N)N)NC(=O)[C@H](CC(=O)O)NC(=O)[C@H]([C@@H](C)CC)NC(=O)[C@H](CCCNC(=N)N)NC(=O)CNC(=O)[C@H](Cc2c[nH]cn2)NC(=O)[C@H](Cc2ccccc2)NC(=O)[C@@H](NC(=O)[C@H](CO)NC(=O)[C@H](CO)NC(=O)[C@H](CCCNC(=N)N)NC(=O)[C@H](CCCNC(=N)N)NC(=O)[C@H](Cc2c[nH]cn2)NC(=O)[C@H](CO)NC(=O)CNC(=O)[C@H](CCCCN)NC(=O)[C@H](CCC(=O)O)NC(=O)[C@H](CCCCN)NC(=O)[C@H](CCC(=O)O)NC(=O)[C@H](CCCCN)NC(=O)[C@H](CCC(=O)O)NC(=O)CC[C@H](NC(=O)CCCCCCCCCCCCCCCCCCC(=O)O)C(=O)O)CSSC[C@@H](C(=O)N[C@@H](CC(N)=O)C(=O)N[C@@H](CO)C(=O)N[C@@H](Cc2ccccc2)C(=O)N[C@@H](CCCNC(=N)N)C(=O)N[C@@H](Cc2c[nH]cn2)C(N)=O)NC(=O)CNC(=O)[C@H](CC(C)C)NC(=O)CNC(=O)[C@H](CO)NC(=O)[C@H](CCC(N)=O)NC(=O)[C@H](C)NC(=O)[C@H](Cc2c[nH]cn2)NC1=O [Example 16] ({C20 diacid-γGlu}-EKEKEKGSHRRSSCFHGRIDRIHAQSGLGCNSFRH-NH2; disulfide 14-30)	807 pM		
